Measurements taken from patent US20230115945A1, “AMINOPYRIMIDINE COMPOUNDS” (TYRA BIOSCIENCES, INC., priority 2019, published 2023).

Legend:
FGFR4 = biological target: T1, FGFR4 (Homo sapiens, UniProt P22455); test: Kinase binding assay (Kd), FGFR4; settings: 11-point 3-fold dilution, qPCR readout
T1 construct: made in house; host or cells: E. coli host derived from BL21, infected with T7 phage
In short: (§1)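 Kinases expressed as T7 phage fusions are mixed with ligand-coated magnetic beads and compound (0.9% DMSO), then shaken 1 h at room temperature. After washing, bound kinase is eluted with free ligand for 30 min and measured by qPCR; Kd is obtained by Hill-equation fitting.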

[1] = test system: SNU-16 cells (Gastric Carcinoma, FGFR2 amplification); test: Cancer cell line cell viability assay, SNU-16; assay type: cell-based; settings: Homo sapiens, 72 hours, Cell Titer-Glo 2.0, read-out: Cancer Cell Viability Assays SNU-16 (IC50 nM)
From the text: (§2) [table] To detect the change of intracellular ATP by Cell Titer-Glo® and to evaluate the inhibitory effect of the compounds on cancer cell lines by determining the in vitro IC50 value of the compounds. Cell Titer-Glo® 2.0 Luminescent cell viability assay reagent was purchased from Promega (Madison, Wis.). RT112/84, SNU-16, and KG-1 cell lines were purchased from American Type Culture Collection (Manassas, Va.). UM-UC-14 cell line was purchased from Sigma (St. Louis, Mo.). RT112/84, UM-UC-14, SNU-16, and KG-1 cells were cultured in RPMI1640 media supplemented with 10% fetal bovine serum. Cultures were maintained at 37° C. in a humidified atmosphere of 5% CO2 and 95% air. Cell Viability Assay Procedure: Cells were plated in 96-well clear bottom/white plates (Corning #3903) at 10,000 cells/well in 100 μl of media, incubated overnight. The next day, test compound DMSO stock solutions were made at 10 mM and 2 μM final concentration. Compounds were then added to cells in a 9-dose, […] dilution series starting at 30 μM with an HP 300e Digital Dispenser (each dose was applied in triplicate). DMSO was backfilled to each well up to 301 nL total volume of test compound+DMSO, and a total of 301 nL DMSO was added to a control/no test compound well in triplicate. The cells in cell culture plates were incubated with the compounds at 37° C. and 5% CO2 for 72 hours. Then 50 μl of Cell Titer Glo 2.0 reagent was added to each well of the cell culture plates. The contents were covered from light and mixed on an orbital shaker at room temperature for 10 min. Luminescence was recorded by a Synergy H1 Microplate Reader (Biotek, Winooski, Vt.). Cells were assessed as a percentage of DMSO only treated control cells. Curves were plotted and IC50 values were calculated using the GraphPad Prism 8 program based on a sigmoidal dose-response equation (4 parameter).

[2] = test system: RT112/84 cells (Bladder Cancer, FGFR3-TACC3 fusion); test: Cancer cell line cell viability assay, RT112/84; assay type: cell-based; settings: Homo sapiens, 72 hours, Cell Titer-Glo 2.0, read-out: Cancer Cell Viability Assays RT112/84 (IC50 nM)
From the text: as §2

FGFR1 = biological target: T2, FGFR1 (Homo sapiens, UniProt P11362); test: Kinase binding assay (Kd), FGFR1; settings: 11-point 3-fold dilution, qPCR readout
T2 construct: made in house; host or cells: E. coli host derived from BL21, infected with T7 phage
T2 sequence (P11362 22-822): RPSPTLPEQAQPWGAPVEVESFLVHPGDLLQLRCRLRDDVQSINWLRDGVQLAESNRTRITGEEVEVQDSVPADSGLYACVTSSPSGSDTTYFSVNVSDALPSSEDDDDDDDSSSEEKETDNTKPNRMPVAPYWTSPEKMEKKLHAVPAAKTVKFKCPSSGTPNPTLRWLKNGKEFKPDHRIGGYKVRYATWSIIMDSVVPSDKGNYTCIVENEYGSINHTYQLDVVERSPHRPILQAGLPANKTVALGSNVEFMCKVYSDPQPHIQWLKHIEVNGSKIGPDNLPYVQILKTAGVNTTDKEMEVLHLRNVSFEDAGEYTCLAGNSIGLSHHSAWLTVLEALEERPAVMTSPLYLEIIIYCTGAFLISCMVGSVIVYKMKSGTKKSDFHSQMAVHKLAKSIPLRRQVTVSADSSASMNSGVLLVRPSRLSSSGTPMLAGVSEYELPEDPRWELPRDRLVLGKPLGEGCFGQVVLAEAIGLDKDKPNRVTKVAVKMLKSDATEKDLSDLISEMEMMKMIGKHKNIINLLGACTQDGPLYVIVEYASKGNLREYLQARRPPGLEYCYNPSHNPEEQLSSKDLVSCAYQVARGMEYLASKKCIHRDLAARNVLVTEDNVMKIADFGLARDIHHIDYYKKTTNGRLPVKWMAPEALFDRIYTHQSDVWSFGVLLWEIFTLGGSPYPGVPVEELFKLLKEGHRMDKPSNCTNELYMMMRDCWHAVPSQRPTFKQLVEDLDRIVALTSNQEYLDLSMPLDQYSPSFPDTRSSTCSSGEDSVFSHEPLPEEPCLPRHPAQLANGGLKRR
In short: as §1

FGFR2 = biological target: T3, FGFR2 (Homo sapiens, UniProt P21802); test: Kinase binding assay (Kd), FGFR2; settings: 11-point 3-fold dilution, qPCR readout
T3 construct: made in house; host or cells: E. coli host derived from BL21, infected with T7 phage
T3 sequence (P21802 22-821): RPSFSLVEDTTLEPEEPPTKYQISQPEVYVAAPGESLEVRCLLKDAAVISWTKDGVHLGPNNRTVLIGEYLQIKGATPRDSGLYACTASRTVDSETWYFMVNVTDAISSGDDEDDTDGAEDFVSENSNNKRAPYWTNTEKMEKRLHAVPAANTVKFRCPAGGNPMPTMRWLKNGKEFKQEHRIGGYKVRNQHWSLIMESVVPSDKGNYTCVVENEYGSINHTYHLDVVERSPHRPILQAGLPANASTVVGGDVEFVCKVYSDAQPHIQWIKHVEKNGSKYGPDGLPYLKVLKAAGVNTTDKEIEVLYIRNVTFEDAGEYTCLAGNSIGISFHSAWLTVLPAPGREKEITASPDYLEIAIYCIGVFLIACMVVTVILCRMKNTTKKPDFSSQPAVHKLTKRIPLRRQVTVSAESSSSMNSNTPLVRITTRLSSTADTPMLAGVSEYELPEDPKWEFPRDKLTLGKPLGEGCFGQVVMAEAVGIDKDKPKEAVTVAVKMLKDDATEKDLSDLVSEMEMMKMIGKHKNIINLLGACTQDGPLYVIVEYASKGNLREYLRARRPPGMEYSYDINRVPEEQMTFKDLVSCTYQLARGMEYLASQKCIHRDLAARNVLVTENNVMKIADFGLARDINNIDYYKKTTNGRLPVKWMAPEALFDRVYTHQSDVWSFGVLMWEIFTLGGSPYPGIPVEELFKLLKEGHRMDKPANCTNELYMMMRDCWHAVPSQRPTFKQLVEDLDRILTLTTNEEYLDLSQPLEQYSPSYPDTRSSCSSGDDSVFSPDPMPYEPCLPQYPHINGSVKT
In short: as §1

FGFR3 = biological target: T4, FGFR3 (Homo sapiens, UniProt P22607); test: Kinase binding assay (Kd), FGFR3; settings: 11-point 3-fold dilution, qPCR readout
T4 construct: made in house; host or cells: E. coli host derived from BL21, infected with T7 phage
T4 sequence (P22607 23-806): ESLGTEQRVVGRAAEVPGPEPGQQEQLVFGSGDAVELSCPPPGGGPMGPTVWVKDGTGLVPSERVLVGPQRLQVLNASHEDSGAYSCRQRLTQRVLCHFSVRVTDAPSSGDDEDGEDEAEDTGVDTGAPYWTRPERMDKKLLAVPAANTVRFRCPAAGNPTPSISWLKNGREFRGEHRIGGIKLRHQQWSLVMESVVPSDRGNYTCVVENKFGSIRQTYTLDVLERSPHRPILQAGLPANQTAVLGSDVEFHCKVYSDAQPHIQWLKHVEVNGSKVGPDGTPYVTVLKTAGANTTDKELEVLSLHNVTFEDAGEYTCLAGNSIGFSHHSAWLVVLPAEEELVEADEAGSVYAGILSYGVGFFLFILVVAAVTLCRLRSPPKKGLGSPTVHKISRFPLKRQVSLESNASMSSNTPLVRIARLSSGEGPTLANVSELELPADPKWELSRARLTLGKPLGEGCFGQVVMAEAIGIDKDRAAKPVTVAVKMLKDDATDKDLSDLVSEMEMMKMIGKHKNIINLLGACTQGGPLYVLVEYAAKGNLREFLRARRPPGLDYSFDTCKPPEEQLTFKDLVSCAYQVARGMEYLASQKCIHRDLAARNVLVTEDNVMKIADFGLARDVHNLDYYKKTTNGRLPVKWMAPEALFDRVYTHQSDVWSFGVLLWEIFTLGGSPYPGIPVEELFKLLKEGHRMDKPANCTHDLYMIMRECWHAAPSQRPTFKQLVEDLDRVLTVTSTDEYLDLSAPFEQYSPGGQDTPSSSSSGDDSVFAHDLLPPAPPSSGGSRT
In short: as §1

FGFR3 (V555M) = biological target: T5, FGFR3 (V555M) (Homo sapiens, UniProt P22607, V555M); test: Kinase binding assay (Kd), FGFR3 (V555M); settings: 11-point 3-fold dilution, qPCR readout
T5 construct: made in house; host or cells: E. coli host derived from BL21, infected with T7 phage
T5 sequence (P22607 23-806 V555M): as the sequence (P22607 23-806) above, with V533M counted along it
In short: as §1

[3] = biological target: T6, FGFR3-BAIAP2L1 Ba/F3 cells (Homo sapiens, UniProt P22607); test: Ba/F3 cell viability assay, FGFR3; assay type: cell-based; settings: FGFR3-BAIAP2L1 fusion Ba/F3, 48 hours, Cell Titer-Glo 2.0; read-out: Ba/F3 Cells FGFR3 (IC50 nM)
T6 construct: Ba/F3 FGFR3; FGFR3--BAIAP2L1 fusion; Advanced Cellular Dynamics, (Seattle, WA); fused on or other part: Q9UHR4 (BAR/IMD domain-containing adapter protein 2-like 1)
T6 sequence (P22607 whole entry, change not shown, the tested form may be a part): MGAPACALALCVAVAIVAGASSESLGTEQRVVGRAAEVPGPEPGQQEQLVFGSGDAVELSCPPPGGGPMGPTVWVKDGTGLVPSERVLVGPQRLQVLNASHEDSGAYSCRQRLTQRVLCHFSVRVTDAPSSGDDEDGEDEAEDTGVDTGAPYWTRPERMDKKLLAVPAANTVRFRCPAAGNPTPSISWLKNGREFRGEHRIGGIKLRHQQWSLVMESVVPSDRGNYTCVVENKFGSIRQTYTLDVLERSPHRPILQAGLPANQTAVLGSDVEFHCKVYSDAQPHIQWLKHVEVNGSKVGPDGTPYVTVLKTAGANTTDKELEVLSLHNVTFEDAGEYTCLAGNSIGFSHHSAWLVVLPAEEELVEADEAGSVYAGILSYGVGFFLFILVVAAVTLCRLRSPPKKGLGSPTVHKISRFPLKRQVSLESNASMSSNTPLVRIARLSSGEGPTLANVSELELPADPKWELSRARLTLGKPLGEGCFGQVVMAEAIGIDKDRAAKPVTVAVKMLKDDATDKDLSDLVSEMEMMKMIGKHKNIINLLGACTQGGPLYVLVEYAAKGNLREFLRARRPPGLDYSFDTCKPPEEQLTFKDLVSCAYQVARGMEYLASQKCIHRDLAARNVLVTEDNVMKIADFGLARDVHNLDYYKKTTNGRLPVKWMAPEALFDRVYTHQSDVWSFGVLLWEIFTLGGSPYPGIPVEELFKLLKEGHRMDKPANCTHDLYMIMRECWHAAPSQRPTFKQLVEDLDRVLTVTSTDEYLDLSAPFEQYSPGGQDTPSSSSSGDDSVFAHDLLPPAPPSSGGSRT
From the text: Experimental Purpose: Recombinant kinase fusions are transduced into parental Ba/F3, which becomes dependent upon this constitutive kinase activity for IL3-independent survival. Inhibition of kinase activity leads to cell death, which is monitored using CellTiter-Glo® 2.0 (Promega) which measures intracellular ATP concentration that in turn serves as a marker for viability. FGFR1-BCR Ba/F3 and FGFR3-BAIAP2L1 Ba/F3 were obtained from Advanced Cellular Dynamics (Seattle, Wash.)
Cell Viability Assay Procedure: Cell Titer-Glo® 2.0 Luminescent cell viability assay reagent was purchased from Promega (Madison, Wis.). FGFR1-BCR Ba/F3 and FGFR3-BAIAP2L1 Ba/F3 cells were cultured in RPMI1640 media supplemented with 10% fetal bovine serum. Cultures were maintained at 37° C. in a humidified atmosphere of 5% CO2 and 95% air.
Cells were plated in 96-well clear bottom/white plates (Corning #3903) at 10,000 cells/well in 100 μl of media, incubated overnight. The next day, test compound DMSO stock solutions were made at 10 mM and 2 μM final concentration. Compounds were then added to cells in a 9-dose, 10-fold dilution series starting at 30 μM with an HP 300e Digital Dispenser (each dose was applied in triplicate). DMSO was backfilled to each well up to 301 nL total volume of test compound+DMSO, and a total of 301 nL DMSO was added to a control/no test compound well in triplicate. The cells in cell culture plates were incubated with the compounds at 37° C. and 5% CO2 for 48 hours. Then 50 μl of Cell Titer Glo 2.0 reagent was added to each well of the cell culture plates. The contents were covered from light and mixed on an orbital shaker at room temperature for 10 min. Luminescence was recorded by a Synergy H1 Microplate Reader (Biotek, Winooski, Vt.). Cells were assessed as a percentage of DMSO only treated control cells. Curves were plotted and IC50 values were calculated using the GraphPad Prism 8 program based on a sigmoidal dose-response equation (4 parameter).

T1 sequence (P22455 22-802): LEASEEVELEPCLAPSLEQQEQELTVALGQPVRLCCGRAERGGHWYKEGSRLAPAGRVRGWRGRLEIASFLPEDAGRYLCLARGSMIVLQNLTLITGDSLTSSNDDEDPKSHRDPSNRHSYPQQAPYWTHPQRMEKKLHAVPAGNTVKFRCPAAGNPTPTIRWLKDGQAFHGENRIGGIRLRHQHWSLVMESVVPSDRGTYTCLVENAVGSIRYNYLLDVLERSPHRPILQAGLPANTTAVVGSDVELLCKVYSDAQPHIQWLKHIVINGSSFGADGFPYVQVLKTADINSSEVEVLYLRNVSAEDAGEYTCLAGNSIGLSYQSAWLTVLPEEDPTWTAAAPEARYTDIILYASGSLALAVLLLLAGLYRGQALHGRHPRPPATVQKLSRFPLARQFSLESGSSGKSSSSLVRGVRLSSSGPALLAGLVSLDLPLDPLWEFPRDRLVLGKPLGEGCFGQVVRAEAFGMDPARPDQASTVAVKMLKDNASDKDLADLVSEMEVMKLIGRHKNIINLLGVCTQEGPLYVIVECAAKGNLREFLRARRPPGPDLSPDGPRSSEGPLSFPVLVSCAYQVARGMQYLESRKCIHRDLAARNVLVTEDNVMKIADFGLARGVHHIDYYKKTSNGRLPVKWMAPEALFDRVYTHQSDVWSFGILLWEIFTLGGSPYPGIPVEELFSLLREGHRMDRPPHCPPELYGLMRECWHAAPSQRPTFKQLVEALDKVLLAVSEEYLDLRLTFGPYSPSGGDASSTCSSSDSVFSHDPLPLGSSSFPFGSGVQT

SMILES | Kd (FGFR4) [nM] | IC50 [1] [nM] | IC50 [2] [nM] | Kd (FGFR1) [nM] | Kd (FGFR2) [nM] | Kd (FGFR3) [nM] | Kd (FGFR3 (V555M)) [nM] | GI50 [3] [nM]
Cc1cnc(Nc2ccc(N=S(C)(C)=O)nc2)nc1-c1c[nH]c2ccccc12 [Example 23, N-[6-[[dimethyl(oxo)-λ^6-sulfanylidene]amino]-3-pyridyl]-4-(1H-indol-3-yl)-5-methyl-pyrimidin-2-amine] | 130 | 132 | 118 | 8 | 6 | 12 | 1 | –
CN(C)C/C=C/C(=O)Nc1ccc2c(ccn2-c2nc(Nc3ccc(N=S(C)(C)=O)cc3)ncc2Cl)c1 [Example 67, (E)-N-[1-[5-Chloro-2-[4-[[dimethyl(oxo)-λ^6-sulfanylidene]amino]anilino]-pyrimidin-4-yl]indol-5-yl]-4-(dimethylamino)but-2-enamide] | 510 | 1450 | 421 | 130 | 120 | 62 | 9.8 | –
C=CC(=O)Nc1cccc2c(-c3nc(Nc4ccc(S(C)(=N)=O)cc4)ncc3Cl)c[nH]c12 (stereo not drawn) [Example 91, N-[3-[5-chloro-2-[4-(methylsulfonimidoyl)anilino]pyrimidin-4-yl]-1H-indol-7-yl]prop-2-enamide] | 130 | 19 | 48 | 19 | 24 | 48 | 2 | –
Cc1[nH]c2ccccc2c1-c1nc(Nc2ccc(S(C)(=N)=O)cc2)ncc1Cl (stereo not drawn) [Example 56, 5-Chloro-4-(2-methyl-1H-indol-3-yl)-N-[4-(methylsulfonimidoyl)phenyl]-pyrimidin-2-amine] | 740 | 857 | 377 | 64 | 34 | 49 | 3 | 273
Cc1cnc(Nc2ccc(S(C)(=N)=O)cc2)nc1-c1c(C)[nH]c2ccccc12 (stereo not drawn) [Example 57, 5-Methyl-4-(2-methyl-1H-indol-3-yl)-N-[4-(methylsulfonimidoyl)phenyl]-pyrimidin-2-amine] | 680 | 803 | 610 | 50 | 43 | 53 | 6 | 431
Cc1cc(Nc2ncc(C)c(-c3c[nH]c4ccccc34)n2)ccc1N=S(C)(C)=O [Example 24, N-[4-[[dimethyl(oxo)-λ^6-sulfanylidene]amino]-3-methyl-phenyl]-4-(1H-indol-3-yl)-5-methyl-pyrimidin-2-amine] | 87 | 60 | 33 | 4 | 7 | 10 | 1 | –
Cc1cnc(Nc2ccc(N=S(C)(C)=O)c(Cl)c2)nc1-c1c[nH]c2ccccc12 [Example 25, N-[3-chloro-4-[[dimethyl(oxo)-λ^6-sulfanylidene]amino]phenyl]-4-(1H-indol-3-yl)-5-methyl-pyrimidin-2-amine] | 89 | 117 | 63 | 7 | 9 | 13 | 2 | –
Cc1cnc(Nc2ccc(N=S3(=O)CCN(C)CC3)cc2)nc1-c1c[nH]c2ccccc12 [Example 49, 4-(1H-Indol-3-yl)-5-methyl-N-[4-[(4-methyl-1-oxo-1,4-thiazinan-1-ylidene)amino]-phenyl]pyrimidin-2-amine] | 120 | 189 | 78 | 8 | 4 | 8 | 1 | –
Cc1cnc(Nc2ccc(S(=N)(=O)C3CC3)cc2)nc1-c1c[nH]c2ccccc12 (stereo not drawn) [Example 51, N-[4-(Cyclopropyl-sulfonimidoyl)-phenyl]-4-(1H-indol-3-yl)-5-methyl-pyrimidin-2-amine] | 130 | 45 | 48 | 10 | 6 | 18 | 3 | –
C=CC(=O)Nc1ccc2c(-c3nc(Nc4ccc(S(=N)(=O)C5CC5)cc4)ncc3Cl)c[nH]c2c1 (stereo not drawn) [Example 90, N-[3-[5-Chloro-2-[4-(cyclopropylsulfonimidoyl)anilino]pyrimidin-4-yl]-1H-indol-6-yl]prop-2-enamide] | 360 | 71 | 81 | 47 | 59 | 41 | 4 | –
Cc1cnc(Nc2ccc(N3CCS(=N)(=O)CC3)cc2)nc1-c1c[nH]c2ccccc12 [Example 54, N-[4-(1-Imino-1-oxo-1,4-thiazinan-4-yl)phenyl]-4-(1H-indol-3-yl)-5-methyl-pyrimidin-2-amine] | 100 | 44 | 33 | 10 | 7 | 13 | 2 | –
C=CC(=O)Nc1ccc2c(ccn2-c2nc(Nc3ccc(S(C)(=N)=O)cc3)ncc2C)c1 (stereo not drawn) [Example 74, N-[1-[5-Methyl-2-[4-(methylsulfonimidoyl)anilino]-pyrimidin-4-yl]indol-5-yl]prop-2-enamide] | 560 | 9 | 713 | 140 | 77 | 41 | 20 | –
CS(=N)(=O)c1ccc(Nc2ncc(Cl)c(-c3c[nH]c4ccccc34)n2)cc1 (stereo not drawn) [Example 52, 5-Chloro-4-(1H-indol-3-yl)-N-[4-(methylsulfonimidoyl)-phenyl]pyrimidin-2-amine] | 390 | 83 | 76 | 27 | 9 | 24 | 6 | –
